According to PubChem BioAssay (NCI):
“And” between values parts separate entries of the source, which are not always exact repeats. Identical values can stand only once.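 Five concentrations, 48 hours, 96-well plates. GI50: concentration for 50% inhibition of growth. The concentration for full growth arrest is given as TGI.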

Assays:
Assay in all cases: NCI-60 cell line screen, 48 h
[1] = test system: SNB-19 CNS
[2] = test system: K-562 leukemia
[3] = test system: ACHN renal
[4] = test system: SN12C renal
[5] = test system: LOX IMVI melanoma
[6] = test system: UO-31 renal
[7] = test system: MALME-3M melanoma
[8] = test system: M14 melanoma
[9] = test system: T-47D breast
[10] = test system: HCT-116 colon

| SMILES | GI50 [1] | TGI [1] | GI50 [2] | TGI [2] | GI50 [3] | TGI [3] | GI50 [4] | TGI [4] | GI50 [5] | TGI [5] | GI50 [6] | TGI [6] | GI50 [7] | TGI [7] | GI50 [8] | TGI [8] | GI50 [9] | TGI [9] | GI50 [10] | TGI [10] |
| --- | --- | --- | --- | --- | --- | --- | --- | --- | --- | --- | --- | --- | --- | --- | --- | --- | --- | --- | --- | --- |
| COc1ccc(-c2nsc3c2NC(=O)CC3c2cccc(OC)c2)cc1 (stereo not given) | 3.47 µM | > 100 µM | 0.358 µM | > 100 µM | 4.87 µM | > 100 µM | 3.81 µM | > 100 µM | 0.689 µM | > 100 µM | 3.1 µM | > 100 µM | 2.32 µM | 66.1 µM | 0.613 µM | > 100 µM | 0.871 µM | > 100 µM | 0.531 µM | > 100 µM |
| Cc1cc2cc3c(=O)[nH]c(=O)[nH]c3nc2cc1C | – | > 100 µM | – | > 100 µM | – | > 100 µM | – | > 100 µM | – | > 100 µM | – | > 100 µM | – | > 100 µM | – | > 100 µM | – | > 100 µM | – | > 100 µM |
| CC1(C)N=C(N)N=C(N)N1c1ccc(CCCCc2ccc(Cl)c(S(=O)(=O)F)c2)c(Cl)c1 | 3.07 µM | 20.6 µM | 0.127 µM | 15.8 µM | 6.56 µM | 21.1 µM | 0.306 µM | 16.2 µM | 0.13 µM | 17.5 µM | 8.2 µM | 28.5 µM | 2.36 µM | 12.5 µM | 0.756 µM | > 41.2 µM | 3.11 µM | 15.1 µM | 0.31 µM | > 39.1 µM |
| Cn1c(=O)c(Oc2ccc(F)cc2)cc2cnc(NC3CCOCC3)nc21 | > 25 µM | > 25 µM | > 25 µM | > 25 µM | > 25 µM | > 25 µM | > 25 µM | > 25 µM | > 25 µM | > 25 µM | > 10.5 µM | > 18.6 µM | > 25 µM | > 25 µM | > 25 µM | > 25 µM | 22.2 µM | > 25 µM | > 25 µM | > 25 µM |
| CC1(Br)Cc2ccccc2C1=O (stereo not given) | – | 81.8 µM | 0.571 µM | – | – | 16.8 µM | 4.55 µM | 14.8 µM | 0.533 µM | 2.41 µM | – | 20.2 µM | – | 9.62 µM and 14.1 µM | 1.08 µM | 4.4 µM | 4.18 µM | 21.2 µM | 2.01 µM | 5.02 µM |
| CSc1nc(NC2OC(COC(C)=O)C(OC(C)=O)C(OC(C)=O)C2OC(C)=O)c(N=CC=Nc2c(NC3OC(COC(C)=O)C(OC(C)=O)C(OC(C)=O)C3OC(C)=O)nc(SC)n(C)c2=O)c(=O)n1C (stereo not given) | 21.1 µM | 50 µM and 92.1 µM | > 50 µM | > 100 µM | 27.8 µM | 50 µM and > 100 µM | > 50 µM | > 100 µM | > 50 µM | > 100 µM | > 50 µM | > 100 µM | > 50 µM | > 100 µM | > 50 µM | > 50 µM | 43.2 µM | 50 µM and > 100 µM | > 50 µM | > 100 µM |
| O=C1CCC/C=C\C[C@H]2C=CC(=O)/C2=C/C[C@H](C/C=C\CC(F)(F)F)O1 | 0.867 µM | 3.71 µM | 0.503 µM | 2.6 µM | 0.333 µM | 0.629 µM | 0.492 µM | 2.04 µM | 0.288 µM | 0.591 µM | 0.298 µM | 0.624 µM | 0.587 µM | 2.29 µM | 0.493 µM | 1.7 µM | 0.635 µM | 2.86 µM | 0.311 µM | 0.614 µM |
| C=CCc1ccc(O)c(-c2ccc(O)c(CC=C)c2)c1 | 21.1 µM | 37 µM | 8.54 µM | > 46.1 µM | 15.8 µM | 30.6 µM | 14.4 µM | 29.6 µM | 15.7 µM | 34.3 µM | 12.4 µM | 27.3 µM | 17.1 µM | 34.9 µM | 21.4 µM | 48.4 µM | 20.3 µM | > 53.9 µM | 20 µM | > 54 µM |
| CN(C)C/C=C/C(=O)Nc1cc2c(Nc3ccc(F)c(Cl)c3)ncnc2cc1O[C@H]1CCOC1 | 2.76 µM and 2.42 µM | 15.7 µM and > 10 µM | 3.17 µM and 1.97 µM | 14.1 µM and > 10 µM | < 0.01 µM and 0.00252 µM | 13.1 µM and > 10 µM | 1.46 µM and 0.576 µM | 14.8 µM and > 10 µM | 1.02 µM and 1.38 µM | 3.62 µM and > 5.51 µM | 0.762 µM and 0.322 µM | 16.4 µM and > 10 µM | 2.1 µM and 1.22 µM | 4.16 µM and 3.95 µM | 1.39 µM and 1.42 µM | 2.99 µM and 6.61 µM | – | 15.9 µM and > 10 µM | 0.448 µM and 0.679 µM | 1.93 µM and > 5.87 µM |
| Nc1ccn(C2OC(CO)C(O)C2O)c(=O)n1 (stereo not given) | 2.19 µM | > 100 µM and 469 µM and > 500 µM | 0.477 µM and 0.464 µM and 4.64 µM | > 500 µM | 0.195 µM and 0.532 µM | > 100 µM and > 35 µM and 151 µM | 2.05 µM | > 100 µM and 457 µM and > 500 µM | 0.829 µM | – | 0.715 µM | – | 0.0741 µM | – | 0.103 µM and 0.285 µM and 0.976 µM | – | 4.2 µM | > 500 µM | 0.142 µM | > 500 µM |
| O=[N+]([O-])c1cccc2ccc(N/N=C/c3ccccc3O)nc12 | > 100 µM | > 100 µM | 1.46 µM | > 100 µM | > 100 µM | > 100 µM | > 100 µM | > 100 µM | > 100 µM | > 100 µM | > 39.9 µM | > 100 µM | > 100 µM | > 100 µM | > 100 µM | > 100 µM | 1.07 µM | > 100 µM | 2.19 µM | > 100 µM |
| CN(C)CCSc1cc(-c2ccccc2)c2ccccc2n1 | – | 28.5 µM | – | 23.5 µM | – | 26.7 µM | – | 32.2 µM | – | 26.6 µM | – | 23 µM | – | 26 µM | – | 7.01 µM | – | 34.4 µM | – | 20.4 µM |
| COC(=O)c1ccc(-c2c(C#N)[n+](=O)c3cc(Cl)c(Cl)cc3n2[O-])cc1 | 18.2 µM | 38.9 µM | 5.54 µM | 21.8 µM | 17.2 µM | 35.2 µM | 14.7 µM | 29.3 µM | 2.38 µM | 5.37 µM | 26.3 µM | 67.3 µM | 20 µM | 44.3 µM | 16.2 µM | 34.1 µM | 2.48 µM | 6.08 µM | 13.3 µM | > 100 µM |
